# Reference: patent US20220119354A1, “DIAMINO-SUBSTITUTED PYRIDINES AND PYRIMIDINES AS HERBICIDES” (FMC Corporation, priority 2019, published 2022)
# Assays:
# Format in all cases: in vivo
# [1] = tested on: galium (catchweed bedstraw, Galium aparine); assay: Test A postemergence, galium; settings: 0 to 100 scale
# Summary of the method: (§1)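 Plants grown in a loam soil and sand blend were treated either preemergence by directed soil spray or postemergence when 2 to 10 cm tall (one- to two-leaf stage). Formulation: non-phytotoxic solvent mixture with surfactant. Greenhouse hold ~10 d, then visual injury assessment on a 0–100 scale.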
# [2] = tested on: wheat (Triticum aestivum); assay: Test A postemergence, wheat; settings: 0 to 100 scale
# Summary of the method: as §1
# [3] = tested on: sedge, umbrella (small-flower umbrella sedge, Cyperus difformis); assay: Test B flooded paddy test, umbrella sedge; settings: Flood, 250 g ai/ha, applied to paddy water, 2-leaf stage, visual evaluation after 13 to 15 d
# Summary of the method: (§2)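 Visual injury scores run from 0 (no effect) to 100 (complete control), assigned by comparison with controls 13 to 15 d after treatment. Treatment went into floodwater standing 3 cm over the soil of pots holding 2-leaf plants.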
# kochia (Kochia scoparia) [4] = assay: Test A postemergence, kochia; settings: 0 to 100 scale
# Summary of the method: as §1
# [5] = tested on: ragweed (common ragweed, Ambrosia elatior); assay: Test A postemergence, ragweed; settings: 0 to 100 scale
# Summary of the method: as §1
# [6] = tested on: barnyardgrass (Echinochloa crus-galli); assay: Test A preemergence, barnyardgrass; settings: 0 to 100 scale; for Barnyardgrass plant response rating: 0 is no effect, 100 is complete control
# Summary of the method: as §1
# [7] = tested on: foxtail, giant (Setaria faberii); assay: Test A postemergence, giant foxtail; settings: 0 to 100 scale
# Summary of the method: as §1
# [8] = tested on: ducksalad (Heteranthera limosa); assay: Test B flooded paddy test, ducksalad; settings: Flood, 250 g ai/ha, applied to paddy water, 2-leaf stage, visual evaluation after 13 to 15 d
# Summary of the method: as §2
# [9] = tested on: pigweed (Amaranthus retroflexus); assay: Test A preemergence, pigweed; settings: 0 to 100 scale; for Pigweed plant response rating: 0 is no effect, 100 is complete control
# Summary of the method: as §1
# [10] = tested on: foxtail, giant (Setaria faberii); assay: Test A preemergence, giant foxtail; settings: 0 to 100 scale; for Foxtail, Giant plant response rating: 0 is no effect, 100 is complete control
# Summary of the method: as §1
# [11] = tested on: barnyardgrass (Echinochloa crus-galli); assay: Test B flooded paddy test, barnyardgrass; settings: Flood, 250 g ai/ha, applied to paddy water, 2-leaf stage, visual evaluation after 13 to 15 d
# Summary of the method: as §2
# [12] = tested on: blackgrass (Alopecurus myosuroides); assay: Test A postemergence, blackgrass; settings: 0 to 100 scale
# Summary of the method: as §1
# [13] = tested on: ragweed (common ragweed, Ambrosia elatior); assay: Test A preemergence, ragweed; settings: 0 to 100 scale; for Ragweed plant response rating: 0 is no effect, 100 is complete control
# Summary of the method: as §1
# corn (Zea mays) = assay: Test A postemergence, corn; settings: 0 to 100 scale
# Summary of the method: as §1
# [14] = tested on: pigweed (Amaranthus retroflexus); assay: Test A postemergence, pigweed; settings: 0 to 100 scale
# Summary of the method: as §1
# rice (Oryza sativa) = assay: Test B flooded paddy test, rice; settings: Flood, 250 g ai/ha, applied to paddy water, 2-leaf stage, visual evaluation after 13 to 15 d
# Summary of the method: as §2
# [15] = tested on: barnyardgrass (Echinochloa crus-galli); assay: Test A postemergence, barnyardgrass; settings: 0 to 100 scale
# Summary of the method: as §1
# [16] = tested on: ryegrass, Italian (Lolium multiflorum); assay: Test A preemergence, Italian ryegrass; settings: 0 to 100 scale; for Ryegrass, Italian plant response rating: 0 is no effect, 100 is complete control
# Summary of the method: as §1
# [17] = tested on: ryegrass, Italian (Lolium multiflorum); assay: Test A postemergence, Italian ryegrass; settings: 0 to 100 scale
# Summary of the method: as §1
# kochia (Kochia scoparia) [18] = assay: Test A preemergence, kochia; settings: 0 to 100 scale; for Kochia plant response rating: 0 is no effect, 100 is complete control
# Summary of the method: as §1
# [19] = 125 g ai/ha, 0 no effect, 100 complete control
# [20] = 500 g ai/ha, 0 is no effect, 100 is complete control
compound,measurement,setting,value
CC(Nc1ncc(C(F)(F)F)c(N)n1)c1csc2ccccc12 (stereo not drawn) [Compound 40],"Plant response rating, Galium",[1]; 125 g ai/ha,60
same,"Plant response rating, Galium",[1]; 500 g ai/ha,90
same,"Plant response rating, Wheat",[2]; 125 g ai/ha,0
same,"Plant response rating, Wheat",[2]; 500 g ai/ha,0
same,"Plant response rating, Sedge, Umbrella (0 to 100 scale, 0 is no effect, 100 is complete control)",[3],40
same,"Plant response rating, Kochia",kochia (Kochia scoparia) [4]; 125 g ai/ha,50
same,"Plant response rating, Kochia",kochia (Kochia scoparia) [4]; 500 g ai/ha,90
same,"Plant response rating, Ragweed",[5]; 125 g ai/ha,30
same,"Plant response rating, Ragweed",[5]; 500 g ai/ha,60
same,Barnyardgrass plant response rating,[6]; 125 g ai/ha,30
same,"Plant response rating, Barnyardgrass",[6]; 500 g ai/ha,80
same,"Plant response rating, Foxtail, Giant",[7]; 125 g ai/ha,0
same,"Plant response rating, Foxtail, Giant",[7]; 500 g ai/ha,20
same,"Plant response rating, Ducksalad (0 to 100 scale, 0 is no effect, 100 is complete control)",[8],20
same,Pigweed plant response rating,[9]; 125 g ai/ha,100
same,"Plant response rating, Pigweed",[9]; 500 g ai/ha,100
same,"Foxtail, Giant plant response rating",[10]; 125 g ai/ha,10
same,"Plant response rating, Foxtail, Giant",[10]; 500 g ai/ha,90
same,"Plant response rating, Barnyardgrass (0 to 100 scale, 0 is no effect, 100 is complete control)",[11],20
same,"Plant response rating, Blackgrass",[12]; 125 g ai/ha,0
same,"Plant response rating, Blackgrass",[12]; 500 g ai/ha,10
same,Ragweed plant response rating,[13]; 125 g ai/ha,90
same,"Plant response rating, Ragweed",[13]; 500 g ai/ha,100
same,"Plant response rating, Corn",corn (Zea mays); 125 g ai/ha,0
same,"Plant response rating, Corn",corn (Zea mays); 500 g ai/ha,10
same,"Plant response rating, Pigweed",[14]; 125 g ai/ha,80
same,"Plant response rating, Pigweed",[14]; 500 g ai/ha,100
same,"Plant response rating, Rice (0 to 100 scale, 0 is no effect, 100 is complete control)",rice (Oryza sativa),0
same,"Plant response rating, Barnyardgrass",[15]; 125 g ai/ha,0
same,"Plant response rating, Barnyardgrass",[15]; 500 g ai/ha,60
same,"Ryegrass, Italian plant response rating",[16]; 125 g ai/ha,20
same,"Plant response rating, Ryegrass, Italian",[16]; 500 g ai/ha,100
same,"Plant response rating, Ryegrass, Italian",[17]; 125 g ai/ha,30
same,"Plant response rating, Ryegrass, Italian",[17]; 500 g ai/ha,0
same,Kochia plant response rating,kochia (Kochia scoparia) [18]; 125 g ai/ha,60
same,"Plant response rating, Kochia",kochia (Kochia scoparia) [18]; 500 g ai/ha,60
C[C@@H](Nc1ncc(C(F)(F)F)c(N)n1)c1csc2ccccc12 [Compound 41],"Plant response rating, Galium",[1]; [19],50
same,Galium plant response rating,[1]; [20],70
same,"Plant response rating, Wheat",[2]; [19],0
same,Wheat plant response rating,[2]; [20],0
same,"Plant response rating, Sedge, Umbrella (0 to 100 scale, 0 is no effect, 100 is complete control)",[3],65
same,"Plant response rating, Kochia",kochia (Kochia scoparia) [4]; [19],70
same,Kochia plant response rating,kochia (Kochia scoparia) [4]; [20],90
same,"Plant response rating, Ragweed",[5]; [19],60
same,Ragweed plant response rating,[5]; [20],90
same,Barnyardgrass plant response rating,[6]; 125 g ai/ha,40
same,Barnyardgrass plant response rating,[6]; 500 g ai/ha,90
same,"Plant response rating, Foxtail, Giant",[7]; [19],50
same,"Foxtail, Giant plant response rating",[7]; [20],100
same,"Plant response rating, Ducksalad (0 to 100 scale, 0 is no effect, 100 is complete control)",[8],35
same,Pigweed plant response rating,[9]; 125 g ai/ha,80
same,Pigweed plant response rating,[9]; 500 g ai/ha,100
same,"Foxtail, Giant plant response rating",[10]; 125 g ai/ha,30
same,"Foxtail, Giant plant response rating",[10]; 500 g ai/ha,90
same,"Plant response rating, Barnyardgrass (0 to 100 scale, 0 is no effect, 100 is complete control)",[11],15
same,"Plant response rating, Blackgrass",[12]; [19],0
same,Blackgrass plant response rating,[12]; [20],0
same,Ragweed plant response rating,[13]; 125 g ai/ha,90
same,Ragweed plant response rating,[13]; 500 g ai/ha,100
same,"Plant response rating, Corn",corn (Zea mays); [19],10
same,Corn plant response rating,corn (Zea mays); [20],20
same,"Plant response rating, Pigweed",[14]; [19],90
same,Pigweed plant response rating,[14]; [20],100
same,"Plant response rating, Rice (0 to 100 scale, 0 is no effect, 100 is complete control)",rice (Oryza sativa),0
same,"Plant response rating, Barnyardgrass",[15]; [19],0
same,Barnyardgrass plant response rating,[15]; [20],50
same,"Ryegrass, Italian plant response rating",[16]; 125 g ai/ha,20
same,"Ryegrass, Italian plant response rating",[16]; 500 g ai/ha,80
same,"Plant response rating, Ryegrass, Italian",[17]; [19],20
same,"Ryegrass, Italian plant response rating",[17]; [20],70
same,Kochia plant response rating,kochia (Kochia scoparia) [18]; 125 g ai/ha,70
same,Kochia plant response rating,kochia (Kochia scoparia) [18]; 500 g ai/ha,90
